What was measured:
[1] = Growth inhibition of human PC3 cells; assay type: functional, cell-based; conditions: PC-3
LNCaP = experiment: Growth inhibition of human LNCAP cells; assay type: functional, cell-based

SMILES	IC50 [1]	IC50 (LNCaP)
CC(O)(CS(=O)(=O)c1ccc(F)cc1)c1cn(-c2ccc(C#N)c(C(F)(F)F)c2)nn1 (racemic)	> 300 µM	45 µM
CC(O)(CS(=O)(=O)c1ccc(F)cc1)c1cn(-c2ccc([N+](=O)[O-])c(C(F)(F)F)c2)nn1 (racemic)	> 300 µM	36 µM
CCOC(=O)c1ccc(-n2cc(C(C)(O)CS(=O)(=O)c3ccc(F)cc3)nn2)cc1 (racemic)	> 300 µM	> 300 µM
CC(O)(CS(=O)(=O)c1ccc(F)cc1)c1cn(-c2ccc(C(=O)O)cc2)nn1 (racemic)	> 300 µM	> 300 µM
CC(O)(CS(=O)(=O)c1ccccc1)c1cn(-c2ccc(C#N)c(C(F)(F)F)c2)nn1 (racemic)	114 µM	151 µM
CC(O)(CS(=O)(=O)c1ccccc1)c1cn(-c2ccc([N+](=O)[O-])c(C(F)(F)F)c2)nn1 (racemic)	29 µM	34 µM
CC(O)(CS(=O)(=O)c1ccc(F)cc1)C(=O)Nc1ccc(C#N)c(C(F)(F)F)c1 (centres undefined) [BICALUTAMIDE]	58 µM	30 µM

Reference: ChEMBL document CHEMBL3352603, “Synthesis and preliminary investigations into novel 1,2,3-triazole-derived androgen receptor antagonists inspired by bicalutamide” (Bioorg Med Chem Lett, 2014)
